The source made the active and inactive calls. The rule behind the calls is not given here.
Key:
HCT-116 [1] = experiment: Growth inhibition of human HCT116 cells overexpressing PI3Kalpha H1047R mutant after 48 hrs by MTT assay; format: functional, cell-based; details: HCT-116, 48 h
[2] = test system: Phosphatidylinositol 4,5-bisphosphate 3-kinase catalytic subunit alpha isoform (Homo sapiens), P42336 [H1047R]; experiment: Inhibition of PI3Kalpha H1047R mutant in human HCT116 cells assessed as inhibition of Akt Ser473 phosphorylation at 25 uM by immunoblot analysis; format: cell-based; details: HCT-116
HCT-116 [3] = experiment: cells; details: Homo sapiens, HCT-116, 48 h
Description: Growth inhibition of human HCT116 cells after 48 hrs by MTT assay

HCT-116 [4] = experiment: Induction of apoptosis in human HCT116 cells overexpressing PI3Kalpha H1047R mutant assessed DNA fragmentation at 25 uM after 48 hrs by ELISA relative to control; format: functional
[5] = test system: Phosphatidylinositol 4,5-bisphosphate 3-kinase catalytic subunit alpha isoform (Homo sapiens), P42336 [H1047R]; experiment: Inhibition of PI3Kalpha H1047R mutant in human HCT116 cells using [32P]ATP at 25 uM after 10 mins; format: cell-based; details: HCT-116
HCT-116 [6] = experiment: Induction of apoptosis in human HCT116 cells overexpressing PI3Kalpha assessed DNA fragmentation at 25 uM after 48 hrs by ELISA relative to control; format: functional
HCT-116 [7] = experiment: Inhibition of Akt expression in human HCT116 cells at 10 uM by immunoblot analysis; format: functional, cell-based
[8] = target: Phosphatidylinositol 4,5-bisphosphate 3-kinase catalytic subunit alpha isoform (Homo sapiens) (UniProt P42336); experiment: Inhibition of PI3Kalpha in human HCT116 cells assessed as inhibition of Akt Ser473 phosphorylation at 25 uM by immunoblot analysis; format: cell-based; details: HCT-116
HCT-116 [9] = experiment: Induction of apoptosis in human HCT116 cells assessed DNA fragmentation at 25 uM after 48 hrs by ELISA relative to control; format: functional
[10] = target: Phosphatidylinositol 4,5-bisphosphate 3-kinase catalytic subunit alpha isoform (Homo sapiens) (UniProt P42336); experiment: Inhibition of PI3Kalpha in human HCT116 cells using [32P]ATP at 25 uM after 10 mins; format: cell-based; details: HCT-116
HCT-116 [11] = experiment: Growth inhibition of human HCT116 cells overexpressing PI3Kalpha after 48 hrs by MTT assay; format: functional, cell-based; details: HCT-116, 48 h
[12] = test system: Phosphatidylinositol 4,5-bisphosphate 3-kinase catalytic subunit alpha isoform (Homo sapiens), P42336 [H1047R]; experiment: Inhibition of PI3Kalpha H1047R mutant in human HCT116 cells assessed as inhibition of Akt Ser473 phosphorylation at 10 uM by immunoblot analysis; format: cell-based; details: HCT-116
[13] = target: Phosphatidylinositol 4,5-bisphosphate 3-kinase catalytic subunit alpha isoform (Homo sapiens) (UniProt P42336); experiment: Inhibition of PI3Kalpha in human HCT116 cells assessed as inhibition of Akt Ser473 phosphorylation at 10 uM by immunoblot analysis; format: cell-based; details: HCT-116
[14] = target: Phosphatidylinositol 4,5-bisphosphate 3-kinase catalytic subunit alpha isoform (Homo sapiens) (UniProt P42336); experiment: Inhibition of PI3Kalpha in human HCT116 cells using [32P]ATP at 10 uM after 10 mins; format: cell-based; details: HCT-116
[15] = test system: Phosphatidylinositol 4,5-bisphosphate 3-kinase catalytic subunit alpha isoform (Homo sapiens), P42336 [H1047R]; experiment: Inhibition of PI3Kalpha H1047R mutant in human HCT116 cells using [32P]ATP at 10 uM after 10 mins; format: cell-based; details: HCT-116

Sequence of Phosphatidylinositol 4,5-bisphosphate 3-kinase catalytic subunit alpha isoform (Homo sapiens) (P42336 whole entry, the tested form may be a part, canonical isoform): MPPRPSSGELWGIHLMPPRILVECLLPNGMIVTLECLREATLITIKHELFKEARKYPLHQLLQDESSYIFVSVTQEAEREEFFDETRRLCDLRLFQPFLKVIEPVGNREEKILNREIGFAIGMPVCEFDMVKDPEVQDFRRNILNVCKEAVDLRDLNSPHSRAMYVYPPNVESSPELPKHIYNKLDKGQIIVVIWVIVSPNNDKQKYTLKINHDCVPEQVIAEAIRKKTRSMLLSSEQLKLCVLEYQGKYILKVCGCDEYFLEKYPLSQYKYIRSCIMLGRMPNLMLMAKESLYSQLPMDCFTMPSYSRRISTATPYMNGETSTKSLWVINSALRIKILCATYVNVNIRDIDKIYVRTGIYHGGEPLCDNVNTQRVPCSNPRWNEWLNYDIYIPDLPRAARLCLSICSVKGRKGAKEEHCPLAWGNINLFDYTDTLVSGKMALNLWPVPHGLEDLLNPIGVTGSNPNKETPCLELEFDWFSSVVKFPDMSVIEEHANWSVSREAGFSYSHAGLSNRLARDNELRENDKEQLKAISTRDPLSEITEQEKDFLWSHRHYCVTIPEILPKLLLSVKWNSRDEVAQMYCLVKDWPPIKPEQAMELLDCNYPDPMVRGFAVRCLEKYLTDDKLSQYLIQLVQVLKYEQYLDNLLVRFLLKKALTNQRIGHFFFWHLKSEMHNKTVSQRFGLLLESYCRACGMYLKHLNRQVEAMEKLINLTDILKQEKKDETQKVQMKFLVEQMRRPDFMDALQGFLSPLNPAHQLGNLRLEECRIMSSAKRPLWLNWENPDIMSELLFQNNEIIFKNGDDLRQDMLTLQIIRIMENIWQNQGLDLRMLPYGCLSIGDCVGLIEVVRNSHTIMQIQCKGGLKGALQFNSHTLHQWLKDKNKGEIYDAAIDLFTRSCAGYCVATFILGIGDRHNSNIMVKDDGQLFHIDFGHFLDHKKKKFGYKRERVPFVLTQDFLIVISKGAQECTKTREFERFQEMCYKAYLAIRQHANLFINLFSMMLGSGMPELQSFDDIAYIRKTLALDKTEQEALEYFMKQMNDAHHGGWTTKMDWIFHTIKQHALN
Sequence of Phosphatidylinositol 4,5-bisphosphate 3-kinase catalytic subunit alpha isoform (Homo sapiens), P42336 [H1047R] (P42336 whole entry H1047R, the tested form may be a part, canonical isoform): as the sequence (P42336 whole entry, the tested form may be a part, canonical isoform) above, with H1047R counted along it

## COc1ccc(C(=O)c2ccccc2C(=O)O)c(O)c1
HCT-116 [1]
  IC50: 18 µM
[2]
  inhibition: Active
HCT-116 [3]
  IC50: 13 µM
HCT-116 [4]
  fold change (FC): 3
[5]
  inhibition: Active
HCT-116 [6]
  fold change (FC): 1.3
HCT-116 [7]
  inhibition: inactive
[8]
  inhibition: Active
HCT-116 [9]
  fold change (FC): 1.8
[10]
  inhibition: Active
HCT-116 [11]
  IC50: 31 µM

## Cc1cc(O)c2c(c1)C(=O)c1cc(O)cc(O)c1C2=O [EMODIN]
HCT-116 [1]
  IC50: 3.8 µM
HCT-116 [3]
  IC50: 6.2 µM
HCT-116 [4]
  fold change (FC): 13
[12]
  inhibition: Active
HCT-116 [6]
  fold change (FC): 12
[13]
  inhibition: Active
HCT-116 [7]
  inhibition: Active
[14]
  inhibition: Active
HCT-116 [9]
  fold change (FC): 8.6
HCT-116 [11]
  IC50: 5.3 µM
[15]
  inhibition: Active

## O=c1c(O)c(-c2cc(O)c(O)c(O)c2)oc2cc(O)cc(O)c12 [MYRICETIN]
[2]
  inhibition: Active
[5]
  inhibition: Active
HCT-116 [7]
  inhibition: inactive
[8]
  inhibition: Active
[10]
  inhibition: Active

## O=c1c(O)c(-c2ccc(O)c(O)c2)oc2cc(O)cc(O)c12 [QUERCETIN]
HCT-116 [1]
  IC50: 5.7 µM
[2]
  inhibition: Active
HCT-116 [3]
  IC50: 6.7 µM
HCT-116 [4]
  fold change (FC): 4
[5]
  inhibition: Active
HCT-116 [6]
  fold change (FC): 2.5
HCT-116 [7]
  inhibition: inactive
[8]
  inhibition: Active
HCT-116 [9]
  fold change (FC): 1
[10]
  inhibition: Active
HCT-116 [11]
  IC50: 23 µM

## O=c1cc(N2CCOCC2)oc2c(-c3ccccc3)cccc12 [LY-294002]
HCT-116 [4]
  fold change (FC): 8.6
[12]
  inhibition: Active
HCT-116 [6]
  fold change (FC): 8.5
[13]
  inhibition: Active
HCT-116 [7]
  inhibition: inactive
[14]
  inhibition: Active
HCT-116 [9]
  fold change (FC): 3.8
[15]
  inhibition: Active

## O=C(NCc1ccccc1)c1c(O)nc2ccccc2c1O
HCT-116 [1]
  IC50: 0.73 µM
[2]
  inhibition: Active
HCT-116 [3]
  IC50: 1.8 µM
HCT-116 [4]
  fold change (FC): 11
[5]
  inhibition: Active
HCT-116 [6]
  fold change (FC): 3.2
HCT-116 [7]
  inhibition: inactive
[8]
  inhibition: Active
HCT-116 [9]
  fold change (FC): 2.9
[10]
  inhibition: Active
HCT-116 [11]
  IC50: 1.1 µM

From ChEMBL document CHEMBL1938320, “Biological evaluation and docking studies of recently identified inhibitors of phosphoinositide-3-kinases” (Bioorg Med Chem Lett, 2012)
